Consider 22 compounds from PubChem BioAssay AID330 (DTP/NCI, 2004).

Several values for one entry are separate records, joined by “and”; a condition that tells them apart may be missing. Equal values may be shown once. Inconclusive results and toxic doses are left out.

The assay deals with P388 leukemia ip, CD2F1 mice, survival T/C. As to the kind of experiment: NCI In Vivo Anticancer Drug Screen. Data for tumor model P388 Leukemia (intraperitoneal) in CD2F1 (CDF1) mice. As to conditions: endpoint: median survival time, higher = longer survival. The method in brief:
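Mice carrying the transplanted tumor received test compound or vehicle. Survival was recorded in each group, and the value is the treated-group measurement divided by that of the vehicle-treated control group.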

Where [1] appears, read: dose: 50.0 mg/kg/injection, schedule: Q01DX005 (ip), vehicle: saline with Tween-80.
Setting [2] is: dose: 100.0 mg/kg/injection, schedule: Q01DX005 (ip), vehicle: saline with Tween-80.
Setting [3] is: dose: 50.0 mg/kg/injection, schedule: Q01DX005 (ip), vehicle: Klucel (hydroxypropylcellulose) (HPC).
[4] abbreviates: dose: 100.0 mg/kg/injection, schedule: Q01DX005 (ip), vehicle: Klucel (hydroxypropylcellulose) (HPC).
[5] abbreviates: dose: 200.0 mg/kg/injection, schedule: Q01DX005 (ip), vehicle: Klucel (hydroxypropylcellulose) (HPC).
Where [6] appears, read: dose: 60.0 mg/kg/injection, schedule: Q01DX005 (ip), vehicle: Klucel (hydroxypropylcellulose) (HPC).
Setting [7] is: dose: 120.0 mg/kg/injection, schedule: Q01DX005 (ip), vehicle: Klucel (hydroxypropylcellulose) (HPC).
Setting [8] is: dose: 240.0 mg/kg/injection, schedule: Q01DX005 (ip), vehicle: Klucel (hydroxypropylcellulose) (HPC).
The mark [9] stands for this setting: dose: 60.0 mg/kg/injection, schedule: Q01DX005 (ip), vehicle: saline with Tween-80.
[10] abbreviates: dose: 120.0 mg/kg/injection, schedule: Q01DX005 (ip), vehicle: saline with Tween-80.
[11] abbreviates: dose: 240.0 mg/kg/injection, schedule: Q01DX005 (ip), vehicle: saline with Tween-80.
Setting [12] is: dose: 50.0 mg/kg/injection, schedule: Q01DX009 (ip), vehicle: saline.
The mark [13] stands for this setting: dose: 100.0 mg/kg/injection, schedule: Q01DX009 (ip), vehicle: saline.
The mark [14] stands for this setting: dose: 200.0 mg/kg/injection, schedule: Q01DX009 (ip), vehicle: saline.
The mark [15] stands for this setting: dose: 25.0 mg/kg/injection, schedule: Q04DX003 (ip), vehicle: saline.

Consider `O=C1CCC2ON=C(Br)C12` (configuration not stated), for which the T/C reads like this: (dose: 20.0 mg/kg/injection, schedule: Q01DX005 (ip), vehicle: distilled water + Tween-80) 110 % of control; (dose: 40.0 mg/kg/injection, schedule: Q01DX005 (ip), vehicle: distilled water + Tween-80) 112 % of control; (dose: 80.0 mg/kg/injection, schedule: Q01DX005 (ip), vehicle: distilled water + Tween-80) 112 % of control.

Consider `N#CC(C(=O)C(N)=O)c1nc2ccccc2s1` (configuration not stated), for which the T/C was 105 % of control under setting [1] and 101 % of control under setting [2].

Regarding `COc1cc(OC)c(NC(=S)Nc2cc(C)ccc2OC)cc1Cl`, the T/C reads like this: (dose: 6.25 mg/kg/injection, schedule: Q01DX009 (ip), vehicle: DMSO) 94 % of control; (dose: 12.5 mg/kg/injection, schedule: Q01DX009 (ip), vehicle: DMSO) 91 % of control; (dose: 25.0 mg/kg/injection, schedule: Q01DX009 (ip), vehicle: DMSO) 91 % of control; (dose: 50.0 mg/kg/injection, schedule: Q01DX009 (ip), vehicle: DMSO) 91 % of control and 93 % of control; (dose: 100.0 mg/kg/injection, schedule: Q01DX009 (ip), vehicle: DMSO) 87 % of control.

For `O=C(O)C1(Cc2ccccc2)C(=O)C=Cc2ccccc21` (configuration not stated), the T/C (dose: 100.0 mg/kg/injection, schedule: Q01DX001 (ip), vehicle: Klucel (hydroxypropylcellulose) (HPC)) was 101 % of control; the T/C (dose: 200.0 mg/kg/injection, schedule: Q01DX001 (ip), vehicle: Klucel (hydroxypropylcellulose) (HPC)) is 101 % of control; the T/C (dose: 400.0 mg/kg/injection, schedule: Q01DX001 (ip), vehicle: Klucel (hydroxypropylcellulose) (HPC)) is 97 % of control.

In the case of `O=C(CNc1ccc(Cl)cc1)c1ccc(Cl)cc1`, the T/C reads like this: under setting [3], 107 % of control; under setting [4], 99 % of control; under setting [5], 90 % of control.

As for `COc1ccc(OC)c(/C=C2/C(=O)N(c3ccccc3)N=C2C)c1`, the T/C is 107 % of control under setting [6], 105 % of control under setting [7] and 107 % of control under setting [8].

As for `CS(=O)(=O)OCCF`, the T/C by setting is: (dose: 0.78 mg/kg/injection, schedule: Q01DX009 (ip), vehicle: saline with Tween-80) 97 % of control; (dose: 1.56 mg/kg/injection, schedule: Q01DX009 (ip), vehicle: saline with Tween-80) 100 % of control; (dose: 3.12 mg/kg/injection, schedule: Q01DX009 (ip), vehicle: saline with Tween-80) 103 % of control; (dose: 3.96 mg/kg/injection, schedule: Q04DX003 (ip), vehicle: saline) 109 % of control; (dose: 6.0 mg/kg/injection, schedule: Q04DX003 (ip), vehicle: saline) 104 % of control; (dose: 6.25 mg/kg/injection, schedule: Q01DX009 (ip), vehicle: saline with Tween-80) 105 % of control and 111 % of control. Further, the T/C by setting is: (dose: 9.0 mg/kg/injection, schedule: Q04DX003 (ip), vehicle: saline) 118 % of control; (dose: 12.5 mg/kg/injection, schedule: Q01DX009 (ip), vehicle: saline with Tween-80) 89 % of control.

In the case of `COc1ccc2c(C)cc(N/N=C\c3ccnc4ccccc34)nc2c1`, the T/C was 91 % of control under setting [3], 92 % of control under setting [4] and 90 % of control under setting [5].

Consider `COc1ccc(C2OC(=O)C(=O)C2=O)cc1OC` (configuration not stated), for which the T/C by setting is: under setting [6], 100 % of control; under setting [7], 107 % of control; under setting [8], 105 % of control.

Consider `O=C(Nc1c(Cl)cccc1Cl)OCc1ccc2c(c1)OCO2`, for which the T/C under setting [6] was 92 % of control, the T/C under setting [7] was 90 % of control and the T/C under setting [8] is 90 % of control.

As for `[CH3][Ge]1([CH3])[CH2]C(c2ccccc2)C(c2ccccc2)[CH2]1` (configuration not stated), the T/C runs as follows: under setting [6], 100 % of control; under setting [7], 97 % of control; under setting [8], 98 % of control.

`CCOC(=O)C(Cc1ccc(O)cc1)NC(=O)C1Cc2c([nH]c3ccccc23)C=N1` (configuration not stated): the T/C is, setting by setting: under setting [9], 100 % of control; under setting [10], 102 % of control; under setting [11], 106 % of control.

With `Cc1onc(-c2c(F)cccc2Cl)c1C(=O)N[C@@H]1C(=O)N2[C@@H]1SC(C)(C)[C@@H]2C(=O)O`, the T/C reads like this: under setting [12], 102 % of control; under setting [13], 105 % of control; under setting [14], 107 % of control.

Take `CCC[CH2][Ge](=[O])[CH2]CCC`: the T/C was 103 % of control under setting [12], 102 % of control under setting [13] and 88 % of control under setting [14].

As to `N=C(N)c1ccc(-c2[nH]c3cc(C(=N)N)ccc3c2N)cc1`, the T/C (dose: 6.25 mg/kg/injection, schedule: Q04DX003 (ip), vehicle: saline) was 86 % of control; the T/C (dose: 12.5 mg/kg/injection, schedule: Q04DX003 (ip), vehicle: saline) is 88 % of control; the T/C under setting [15] was 92 % of control.

With `CC1COCCOC(=O)COCC(=O)OCCOCC(C)O1` (configuration not stated), the T/C (dose: 100.0 mg/kg/injection, schedule: Q04DX003 (ip), vehicle: Klucel (hydroxypropylcellulose) (HPC)) is 107 % of control; the T/C (dose: 200.0 mg/kg/injection, schedule: Q04DX003 (ip), vehicle: Klucel (hydroxypropylcellulose) (HPC)) was 103 % of control; the T/C (dose: 400.0 mg/kg/injection, schedule: Q04DX003 (ip), vehicle: Klucel (hydroxypropylcellulose) (HPC)) is 93 % of control.

In the case of `COc1cc(C(=O)CC(=O)CCC(=O)Nc2ccc(C)c(C)c2)ccc1O`, the T/C under setting [9] is 102 % of control, the T/C under setting [10] is 104 % of control and the T/C under setting [11] is 102 % of control.

`COc1cc(C=Nc2cc(Cl)c(O)c(Cl)c2)ccc1N(CCCl)CCCl`: the T/C (dose: 12.0 mg/kg/injection, schedule: Q04DX003 (ip), vehicle: saline) was 204 % of control; the T/C (dose: 17.0 mg/kg/injection, schedule: Q04DX003 (ip), vehicle: saline) was 263 % of control; the T/C under setting [15] is 100 % of control.

`COc1cccc2c1C(=O)c1c(O)c3c(c(O)c1C2=O)C[C@@](O)(C(=O)CSC(C)=O)C[C@@H]3OC1CC(N)C(O)C(C)O1` (some centres not stated): the T/C (dose: 25.0 mg/kg/injection, schedule: Q01DX009 (ip), vehicle: water) is 108 % of control and 90 % of control.

For the compound `O=C1Nc2cccnc2NC2=C1CSC2`, the T/C is 110 % of control under setting [9], 97 % of control under setting [10] and 98 % of control under setting [11].

Turning to `O=C1C=CC2C3C(=O)N(c4ccccc4)C(=O)C3C1N2Cc1ccccc1` (configuration not stated), the T/C was 105 % of control and 110 % of control and 118 % of control under setting [1]; 116 % of control and 117 % of control and 118 % of control under setting [2]; 119 % of control and 120 % of control and 123 % of control (dose: 200.0 mg/kg/injection, schedule: Q01DX005 (ip), vehicle: saline with Tween-80); 113 % of control and 114 % of control (dose: 400.0 mg/kg/injection, schedule: Q01DX005 (ip), vehicle: saline with Tween-80).

On to `CC(NCCc1ccccc1)C1CCOC1=O` (configuration not stated), for which the T/C is, setting by setting: (dose: 6.25 mg/kg/injection, schedule: Q01DX009 (ip), vehicle: saline) 98 % of control; (dose: 12.5 mg/kg/injection, schedule: Q01DX009 (ip), vehicle: saline) 97 % of control and 102 % of control; (dose: 25.0 mg/kg/injection, schedule: Q01DX009 (ip), vehicle: saline) 103 % of control and 109 % of control; under setting [12], 100 % of control and 97 % of control.
